Source: patent US20080064691A1, “Heterocyclic Amide Derivatives Which Possess Glycogen Phosphorylase Inhibitory Activity” (AstraZeneca AB, priority 2003, published 2008)
Each block holds one molecule with its values, some of them ahead of it.

Tests used:
conscious dogs = details: cited from earlier work
hepatocytes = details: cited from earlier work
db/db and ob/ob mice = db/db and ob/ob mice following treatment; cited from earlier work
[1] = molecular target: T1, Human recombinant liver glycogen phosphorylase a (hrl GPα) (Homo sapiens, UniProt P06737); test: glycogen phosphorylase inhibition, multienzyme coupled assay (glucose-1-phosphate production from glycogen); assay type: biochemical; details: hrl GPα 20 nM, 6 hours at 30° C.
T1 sequence (P06737 1-847): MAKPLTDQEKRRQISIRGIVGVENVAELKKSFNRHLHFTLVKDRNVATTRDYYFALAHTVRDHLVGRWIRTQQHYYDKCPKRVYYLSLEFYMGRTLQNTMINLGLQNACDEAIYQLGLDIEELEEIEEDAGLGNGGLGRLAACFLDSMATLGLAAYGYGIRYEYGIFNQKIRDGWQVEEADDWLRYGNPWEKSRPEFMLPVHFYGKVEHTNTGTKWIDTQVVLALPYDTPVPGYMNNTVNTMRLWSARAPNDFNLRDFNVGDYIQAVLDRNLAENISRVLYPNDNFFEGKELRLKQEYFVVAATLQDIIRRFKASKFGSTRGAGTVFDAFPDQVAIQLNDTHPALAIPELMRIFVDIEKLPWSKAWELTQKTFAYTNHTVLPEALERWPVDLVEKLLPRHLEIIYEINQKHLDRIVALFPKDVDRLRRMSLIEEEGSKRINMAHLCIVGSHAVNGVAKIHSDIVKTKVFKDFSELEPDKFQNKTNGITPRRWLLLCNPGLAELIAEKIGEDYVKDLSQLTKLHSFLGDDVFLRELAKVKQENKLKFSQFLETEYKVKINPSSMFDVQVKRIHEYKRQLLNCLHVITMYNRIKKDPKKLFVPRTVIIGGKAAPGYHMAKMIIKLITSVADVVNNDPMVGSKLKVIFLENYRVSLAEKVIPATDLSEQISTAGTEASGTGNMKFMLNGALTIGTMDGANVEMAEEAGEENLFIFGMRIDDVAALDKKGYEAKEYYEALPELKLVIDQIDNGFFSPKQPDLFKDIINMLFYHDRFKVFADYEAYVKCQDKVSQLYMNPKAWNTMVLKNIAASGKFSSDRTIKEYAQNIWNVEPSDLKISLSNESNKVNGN
Protocol: The activity of the compounds is determined by measuring the inhibitory effect of the compounds on glycogen degradation, the production of glucose-1-phosphate from glycogen is monitored by the multienzyme coupled assay, as described in EP 0 846 464 A2, general method of Pesce et al (Pesce, M A, Bodourian, S H, Harris, R C, and Nicholson, J F (1977) Clinical Chemistry 23, […]). The reactions were in 384 well microplate format in a volume of 50 μl. The change in fluorescence due to the conversion of the co-factor NAD to NADH is measured at 340 nm excitation, 465 nm emission in a Tecan Ultra Multifunctional Microplate Reader. The reaction is in 50 mM HEPES, 3.5 mM KH2PO4, 2.5 mM MgCl2, 2.5 mM ethylene glycol-bis(b-aminoethyl ether) N,N,N′,N′-tetraacetic acid, 100 mM KCl, 8 mM D-(+)-glucose pH7.2, containing 0.5 mM dithiothreitol, the assay buffer solution. Human recombinant liver glycogen phosphorylase a (hrl GPα) 20 nM is pre-incubated in assay buffer solution with 6.25 mM NAD, 1.25 mg type III glycogen at 1.25 mg ml^−1 the reagent buffer, for 30 minutes. […] The non-inhibited activity of GPα is measured in the presence of 10 μl 5% DMSO in assay buffer solution and maximum inhibition measured in the presence of 5 mgs ml^−1 N-ethylmaleimide. […] Relative Fluoresence Units (RFUs) are measured at 340 nm excitation, 465 nm emission . […]

SMILES: CCN1C(C)=C(C(=O)OC(C)C)C(c2ccccc2Cl)C2=C1COC2=O (stereo not drawn) [Bay R3401]
arterial plasma glucose following a glucagon challenge (conscious dogs): reduced significantly | hepatic glucose output following a glucagon challenge (conscious dogs): reduced significantly

SMILES: CN(C)C(=O)[C@H](O)[C@H](Cc1ccccc1)NC(=O)c1cc2cc(Cl)ccc2[nH]1 [CP91149]
glucagon stimulated glycogenolysis (hepatocytes): reduce | glucose output (hepatocytes): reduce | plasma glucose concentration (db/db and ob/ob mice): reduced, in a dose related manner

SMILES: O=C(N[C@@H](Cc1ccc(F)cc1)C(=O)N1CCC(O)CC1)c1cc2cc(Cl)ccc2[nH]1 [CP320626]
glucagon stimulated glycogenolysis (hepatocytes): reduce | glucose output (hepatocytes): reduce | plasma glucose concentration (db/db and ob/ob mice): reduced, in a dose related manner

IC50 [1]: 493 nM
SMILES: O=C(N[C@@H]1Cc2ccccc2[C@H]1CO)c1cc2cc(Cl)sc2[nH]1 [Example 5, 2-Chloro-N-[(1R,2R)-1-(hydroxymethyl)-2,3-dihydro-1H-inden-2-yl]-6H-thieno[2,3-b]pyrrole-5-carboxamide]
